Results: patent US20230255869A1, “FATTY ACID DERIVATIVE, PRODUCTION PROCESS THEREFOR, HAIR COMPOSITION AND HAIR-TREATMENT METHOD” (CHEMYUNION LTDA., priority 2020, published 2023)

Legend:
[1] = Evaluation of the cuticular region of hair fibers by scanning electron microscopy (SEM); conditions: conditioner plus 1% active; bleached and dyed fibers; 1100x
Experimental: The tests to evaluate the effectiveness of the shine on locks of hair were carried out with standardized fibers of straight, dark brown hair, provided by International Hair Importers— USA.
The locks were washed with anti-residue shampoo and dried naturally (24±1h).
After the pre-treatment, the locks of hair from the groups G1, G2, G3 and G4 (average weight of 2 g per lock), were subjected to the process of chemical bleaching.
To carry out the process, a bleaching mixture was prepared with 15 g of bleaching powder and 30 g of hydrogen peroxide 30 volumes. This mixture was evenly applied to the locks of hair. After application, the locks were wrapped in aluminum foil and left to rest for 45 minutes. After the time of action of the bleaching mixture, the locks were washed and rinsed abundantly with running water (2 minutes) and received the application of a standard conditioner. After 2 minutes of rest, for the conditioner to work, the locks were rinsed again. The locks were dried with hot air from the dryer.
The whole process was repeated two more times, totaling three bleachings. […]
The evaluation of the surface of the hair fibers (cuticle region) was performed using a scanning electron microscope (SEM), model 6460 LV (JEOL). The study is based on capturing images (1100× magnification) of 10 capillary fibers randomly selected from the evaluated groups. […]

[2] = Shine evaluation of hair locks treated with conditioner (SAMBA Hair System, Reich-Robbins luster)
Experimental: The tests for evaluating the effectiveness in the shine of locks of hair were carried out with standardized fibers of CaucasianU, brown, straight hair, supplied by International Hair Importers— USA, model most used for these types of tests (Table 1).
The locks were washed with anti-residue shampoo and dried naturally (24±1h) before treatment.
The formulations were applied according to the protocol described below: For the locks in group G1 (Control), shampoo was applied in a standardized amount of SLES solution (8.1% active) on wet hair and gently massaged for 1 minute. Then rinsed for 1 minute.
For locks in group G2 (Placebo) and with the actives: G3 (Ricinoleamide), G4 (Cyclometicone), G5 (Phenyltrimethicone), G6 (Dimethicone), G7 (Aminopropyl phenyltrimethicone) and G8 (Propylene glycol dibenzoate) and G9 (Ricinoleate mono- and diesters), shampoo was applied in a standardized amount of placebo/standard shampoo to wet hair and gently massaged for 1 minute. Then rinsed for 1 minute. After rinsing the hair, the conditioner (3.0±0.2 g) was applied to the entire length of the hair, massaging and untangling the hair. Leaving the product to act for 2 minutes and it was rinsed for 1 minute. This protocol was repeated once, and then four more times, for all groups according to their specific treatment, described in Table 1.
The locks were kept in a controlled environment at 23±2° C. and 50±5% relative humidity (R. H.), for at least 24 hours before the tests were started. The entire test period was carried out under the same environmental conditions.
The evaluation of hair shine was performed on three locks per group, using the equipment SAMBA Hair System of the company Bossa Nova Technologies, USA.
The locks of hair were positioned on a cylindrical support that slides into the interior of the equipment, in order to carry out the measurements.
The equipment successively captures two parallel images of the locks of hair. Specular image and diffuse image. The specular image is formed only by the light reflected by the hair surfaces (first and second) of reflection. This image contains the brightness information. The diffused image (diffuse) is formed only by the scattered light coming from inside the hair.
The SAMBA system program calculates parameters associated with the reflection and refraction of light, the most used parameter is Luster, which evaluates the real state and quality of the brightness of the object under study. This parameter can be calculated simultaneously through different formulas, and for this study the analysis data obtained by the Reich-Robbins formula was used.
For the statistical evaluation of the tests, analysis of variance (ANOVA) was used. Tukey's test was applied when analysis of variance detected significant differences between the groups. For comparative tests between before and after the same sample, the t-Test (Student) was used.

Compound	integrity of the cuticular region (subjective SEM evaluation) vs Control and Placebo [1]	difference of shine value greater than Amino pfenyltrimethicone group ([2]; conditioner with 1% active, one treatment, vs Amino pfenyltrimethicone (1%)) [%]	difference of shine value (after minus before one treatment) greater than Control group ([2]; conditioner with 1% active, one treatment, vs Control (SLES wash)) [%]	difference of shine value greater than Cyclomethicone group ([2]; conditioner with 1% active, one treatment, vs Cyclomethicone (1%)) [%]	difference of shine value greater than Dimethicone group ([2]; conditioner with 1% active, one treatment, vs Dimethicone (1%)) [%]	difference of shine value greater than Phenyltrimethicone group ([2]; conditioner with 1% active, one treatment, vs Phenyltrimethicone (1%)) [%]	difference of shine value greater than Placebo group ([2]; conditioner with 1% active, one treatment, vs Placebo conditioner) [%]	difference of shine value greater than Propilene glycol dibenzoate group ([2]; conditioner with 1% active, one treatment, vs Propilene glycol dibenzoate (1%)) [%]	difference of shine value greater than ricinoleate mono- and diesters group ([2]; conditioner with 1% active, one treatment, vs ricinoleate mono- and diesters (1%)) [%]	efficiency in providing increased shine in the first application compared to other compounds ([2]; same concentrations, FIG. 1)
phenyltrimethicone [reference compound]	preservation of the cuticular region									
CCCCCC[C@@H](O)C/C=C\CCCCCCCC(N)=O [Ricinoleamide, ricinoleamide]	greater preservation of the cuticular region	93.4	78.4	78.4	52.7	56.7	84	95.1	54.0	greater efficiency
